Measured values reported in publication PMC10964662, “Domperidone inhibits cell proliferation via targeting MEK and CDK4 in esophageal squamous cell carcinoma” (Cancer Cell International, 2024).

What was measured:
[1] = target: T1, MEK2 (Homo sapiens, UniProt P36507); test: SPR (Biacore T200, CM5 chip); also pull-down, DARTS and in vitro kinase assay; format: binding
T1 construct: gene MAP2K2; active MEK2 human recombinant protein

[2] = target: CDK4 (Homo sapiens, UniProt P11802); test: pull-down with domperidone-Sepharose 4B beads and DARTS in KYSE150/KYSE450 lysates; format: cell-based
[3] = target: T2, MEK1 (Homo sapiens, UniProt Q02750); test: SPR (Biacore T200, CM5 chip); also pull-down, DARTS and in vitro kinase assay; format: binding
T2 construct: gene MAP2K1; active MEK1 human recombinant protein
T2 sequence (Q02750 whole entry): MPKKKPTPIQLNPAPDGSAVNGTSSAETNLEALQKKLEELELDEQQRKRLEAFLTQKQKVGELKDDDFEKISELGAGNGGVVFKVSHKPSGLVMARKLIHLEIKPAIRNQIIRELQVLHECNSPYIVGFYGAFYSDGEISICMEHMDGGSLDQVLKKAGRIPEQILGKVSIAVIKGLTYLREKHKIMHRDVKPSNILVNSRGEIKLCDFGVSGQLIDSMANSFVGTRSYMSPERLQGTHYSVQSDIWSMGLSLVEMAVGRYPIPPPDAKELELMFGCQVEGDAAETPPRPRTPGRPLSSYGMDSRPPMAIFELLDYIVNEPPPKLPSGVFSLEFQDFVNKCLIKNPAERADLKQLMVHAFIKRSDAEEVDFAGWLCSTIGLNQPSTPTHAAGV

Sequence of CDK4 (P11802 2-303): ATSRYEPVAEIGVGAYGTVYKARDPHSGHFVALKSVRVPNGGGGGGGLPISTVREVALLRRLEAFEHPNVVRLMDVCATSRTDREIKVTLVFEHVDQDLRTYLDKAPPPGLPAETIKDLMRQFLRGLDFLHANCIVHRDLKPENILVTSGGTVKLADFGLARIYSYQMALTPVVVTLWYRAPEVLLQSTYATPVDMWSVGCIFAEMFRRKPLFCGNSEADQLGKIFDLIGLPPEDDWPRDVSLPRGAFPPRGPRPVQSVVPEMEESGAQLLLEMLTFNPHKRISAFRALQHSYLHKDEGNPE
T1 sequence (P36507 whole entry): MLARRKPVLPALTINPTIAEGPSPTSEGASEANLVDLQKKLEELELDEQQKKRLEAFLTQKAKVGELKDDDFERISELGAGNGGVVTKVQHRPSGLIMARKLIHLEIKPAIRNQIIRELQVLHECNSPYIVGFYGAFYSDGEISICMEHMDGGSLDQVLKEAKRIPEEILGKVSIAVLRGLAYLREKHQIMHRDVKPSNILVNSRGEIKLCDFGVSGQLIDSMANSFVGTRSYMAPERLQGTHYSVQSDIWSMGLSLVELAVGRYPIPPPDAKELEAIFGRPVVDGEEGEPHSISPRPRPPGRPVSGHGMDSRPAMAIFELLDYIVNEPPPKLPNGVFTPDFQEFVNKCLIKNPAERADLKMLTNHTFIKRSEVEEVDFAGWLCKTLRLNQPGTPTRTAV

Which Kd [1] does the source give for O=c1[nH]c2ccccc2n1CCCN1CCC(n2c(=O)[nH]c3cc(Cl)ccc32)CC1 [compound 9, Domperidone] here?
Its Kd is 6.66 µM.

What about the “pull-down with domperidone-Sepharose 4B beads and DARTS in KYSE150/KYSE450 lysat” value [2] of the same compound?
The value was “DARTS assay also validated that domperidone could directly interact with MEK1, MEK2 and CDK4 ex vivo”.

And the Kd [3]?
Its Kd is 6.2 µM.
